The values below come from patent US8158575B2, “Agent for the prevention and treatment of sexually transmitted diseases-I” (priority 2001, dated 2012).

The subject of series [1] is IIIB strain of HIV. It is filed as cell-based, HIV-1. Conditions: HeLa CD4 LTR […]-gal cells. The method, then: At 24 h media is removed and compound in media placed on the cells and incubated for 15 min at 37° C.
Series [2] relates to human papillomavirus type 6b VLPs. The series can be described thus: Inhibition of uptake of HPV virus-like particles into A431 cells (flow cytometry). Format: cell-based. How it is done: The compound was evaluated for its ability to inhibit the binding and uptake of human papillomavirus virus-like particles to a human epithelial cell line.
The compound was tested at a range of six dilutions as inhibitor of binding and of uptake of Papillomavirus fluorochrome-tagged Virus-Like-Particles (VLPs) of human papillomavirus type 6b. […] Assay of binding and uptake was determined using flow cytometry and inhibition of binding was reported as a percentage with respect to the binding observed in the absence of inhibitor. The tests were performed in two independent assays
Cells. The human epidermoid carcinoma cell line A431 was purchased from the American Type Culture Collection at passage 30 (CRL-1555, Batch F-13530) and maintained in DMEM in 10% FCS.
Human papillomavirus type 6b VLPs were grown and purified according to standard operating procedures. Particles were labelled with a fluorochrome.
The compound was re-dissolved in sterile water to the concentrations of 5 mM and used fresh for the first assay before being frozen at −20° C. It was then thawed for the second assay.
A T75 flask of A431 cells was washed with 10 ml of PBS/EDTA (0.05%) for 5 minutes at 37° C. before being treated with 2 ml trypsin for a further 5 minutes at 37° C. […]
Results were analysed using WinLisT. […]
In general terms: A flow cytometer gives signals particle by particle.

Series [3] has as its system GHOST(3) X4/R5 cell line. The series can be described thus: XTT cell viability in the CD4-dependent transmission assay. It is filed as cell-based, human. The method, then:
The […] is carried out essentially as described for the CD4-independent transmission assay except for the use of the CD4 positive GHOST(3) X4/R5 cell line. This cell line is derived from the HOS (human osteosarcoma) cell line that is negative for HIV coreceptor and CD4 expression. The cell line is engineered to express T4 (CD4), R5 and X4 via non-selectable retroviral vectors and an HIV-2 LTR hGFP construct with a hygromycin selectable marker. The cell lines are handled and cultured as described above for the CD4-independent HIV inhibition assay, with the exception that 2.5×10^4 GHOST(3) X4/R5 and 5×10^2 mitomycin C treated H9/SK-1 cells are used in the assay. Addition of compounds, mitomycin C treatment and post-transmission washing to remove the H9/SK-1 cells are performed as described above to allow comparability of the two antiviral assays. Virus replication is assessed at 24 h post infection, following 3 washes, by measurement of cell-associated p24 by ELISA to ensure a single round of infection in the presence of CD4. Compound toxicity and cell viability are assessed by XTT dye reduction.

Series [4] has as its system HeLa CD4 LTR […]-gal cells. The series can be described thus: XTT toxicity on sister plate of the attachment assay. Format: cell-based. How it is done:
This assay is designed to detect compounds that interact with the cell and block virus attachment, and/or compounds which interact with the forming attachment/fusion complex. The attachment assay is performed with HeLa CD4 LTR […]-gal cells. HeLa CD4 LTR […]-gal cells are routinely cultured with the required selection antibiotics. Twenty-four h prior to initiation of the assay the cells are trypsinized, counted and 1×10^4 cells placed in a 0.2 cm well in media without selection antibiotics. At 24 h media is removed and compound in media placed on the cells and incubated for 15 min at 37° C. A known titer of the IIIB strain of HIV is then added to the wells and the incubation continued for 1 h. At the end of the incubation the wells are washed 3 times with media and the culture continued for 40 to 48 h. At termination of the assay, media is removed and […]-galactosidase enzyme expression determined by chemiluminescence per manufacturers instructions (Tropix Gal-screen™, Bedford Mass.) by a single step chemiluminescent method using a single solution to lyse the cells and detect […]-galactosidase enzyme activity. Compound toxicity is monitored on a sister plate by XTT dye reduction. […] The virus adsorption interval of 1 h is sufficiently short that AZT, which requires phosphorylation to its active tri-phosphate form (AZT-TTP), is not active in this assay.

Series [5] has as its system Lactobacillus jensenii. The experiment in a line: Lactobacillus growth sensitivity assay. Format: cell-based. Conditions: 24 h growth, OD 490 nm. The method, then:
(§1) Lactobacillus crispatus and Lactobacillus jensenii were obtained from the American Type Tissue Culture Collection and grown in Lactobacilli MRS broth (Difco, Fisher Scientific, Pittsburgh, Pa.). This medium allows efficient growth of the Lactobacilli under anaerobic conditions. Bacillus stocks are produced and frozen in 15% glycerol at −80° C. for use in the sensitivity assay. To assess the effect of compounds on L. crispatus and L. jensenii growth, 10 ml of MRS media is inoculated with a stab from the glycerol bacterial stock. The culture is placed in a Gas Pak CO2 bag and incubated for 24 h at 37° C. The next day the lactobacillus cultures are diluted to an OD of 0.06 at a wavelength of 670 nm. Compounds are diluted and placed into a 96 well flat bottomed plate and the Lactobacillus sp. added. Commercially available Penicillin/Streptomycin solution at a high test concentration of 1.25 U/ml and 1.25 µg/ml, respectively, are used as the positive control. The plates are again incubated for 24 h at 37° C. in a Gas Pak CO2 bag and bacterial growth determined by measurement of optical density at 490 nm in a molecular devices plate reader. All determinations are performed with 6½ log dilutions from a high test concentration in triplicate.

Series [6] deals with Lactobacillus crispatus. The experiment in a line: Lactobacillus growth sensitivity assay. Conditions: 24 h growth, OD 490 nm. It is filed as cell-based. How it is done:
as §1

Take “BHAlyslys2lys4lys8lys16[NH—CO—CH2)O-3,6-Naphthyl-(SO3Na)2]32 [SPL-7013]”: the “Attachment Assay IC50” value in series [1] was 0.57 µg/ml. For the same substance, in series [2] (1 μM, HPV 6b VLPs), the “Uptake of VLPs at maximal inhibition (% of VLPs alone)” value is listed as 26%. Moreover, the “Uptake inhibition (in words)” value in series [2] (at 1 μM and 10 nM) was “shown uptake inhibition”. In series [3], the “CD4-Dependent Transmission Assay TC50” value was above 100 µg/mL. Moreover, the “Attachment Assay TC50” value in series [4] is above 100 µg/mL. The “L jensenii (ID50)” value in series [5] was above 100 µg/mL. For the same substance, the “L. crispatus (ID50)” value in series [6] is above 100 µg/mL.
